The text below walks through data of US9314966B2, “Bandseal for PEG-filled hard capsule” (QUALICAPS CO., LTD., priority 2007, dated 2016).

A value given as a limit tells only on which side of the number the result lay.

What all share (format): physicochemical
Series [1] can be described thus: Solubility in PEG400 (naked-eye inspection). The following applies: for solubility: polyethylene glycol 400 (PEG400), organic solvent or mixture, thermodynamic from solid, read-out: Solubility in PEG400, Evaluation results. Here is the method:
0.5 g each of the high-molecular compounds and plasticizers were placed into separate test tubes. 5 mL of PEG400 was added to each test tube. After stirring with a mixer, the resulting mixtures were inspected with the naked eye and the high-molecular compounds and plasticizers were evaluated for their solubility in PEG400.

Series [2] is described as follows: Solubility in 10 wt. % aqueous PVA solution. The following applies: aqueous with cosolvent or surfactant or cyclodextrin, thermodynamic from solid; 0.5 g in 10 wt. % aqueous PVA (JP-05) solution; read-out: Solubility in the Aqueous PVA Solution, Evaluation result. The method, then:
(§1) Based on the results of Experimental Example 1, the candidates as raw materials for the band seal (see Table 2) were tested to research substances soluble in an aqueous solution of a PVA copolymer (POVACOAT Type F, product of Daido Kasei Corp., viscosity: 5.5 mPa·s, as measured at 25° C. using a 5% aqueous solution of the copolymer), and an aqueous solution of PVA (JP-05, product of Japan Vam & Poval Co., Ltd., average degree of polymerization: 500).
(§2) More specifically, 0.5 g each of the film-forming high-molecular compounds and plasticizers were placed into separate test tubes. A 10 wt. % aqueous solution of the PVA copolymer or a 10 wt. % aqueous solution of the PVA was added to each test tube. […] If some solids or liquid separation was observed, the mixture was evaluated as “not dissolved (insoluble)”.

A short description of series [3]: Solubility in 10 wt. % aqueous PVA copolymer solution. The following applies: aqueous with cosolvent or surfactant or cyclodextrin, thermodynamic from solid; 0.5 g in 10 wt. % aqueous PVA copolymer (POVACOAT Type F) solution; read-out: Solubility in the Aqueous PVA Copolymer Solution, Evaluation result. Here is the method: as §1, §2
[4] abbreviates: 0.5 g in 5 mL of PEG400, stirred, naked eye.

On to Polysorbate 80, for which, in series [1] (setting [4]), the “Solubility in PEG400, Evaluation results” value is reported as “x (x: dissolved)”.
Usually solubility stands for how much of the substance goes into solution per volume. With `CC(=O)OCC(COC(C)=O)OC(C)=O` [Triacetin], in series [1] (setting [4]), the solubility is above 100 mg/mL.
Still for that read-out and setting: the figure for `OCC(O)CO` [Glycerol] is above 100 mg/mL.
Regarding `OC[C@@H](O)[C@@H](O)[C@H](O)[C@@H](O)CO` [Sorbitol], in series [1] (0.5 g in 5 mL of PEG400), the “Solubility in PEG (in words)” value is given as “insoluble”. Also, the values for the solubility in series [1] (setting [4]), in series [2] and in series [3] were below 100 mg/mL, above 100 mg/mL and above 100 mg/mL, respectively.
For the molecule `CC(O)CO` (centres unmarked) [Propylene glycol], in series [1] (setting [4]), the solubility is above 100 mg/mL.
